Reference: patent publication US20150018369A1 (priority 2012, published 2015)
Like-named read-outs stand apart in the source and are kept apart here.

Legend:
T98 g cells = assay: Cell viability assay (WST-1), SAR of AI compounds at inducing cell death; format: cell-based, human
Method: (§1) Cells were plated media supplemented with 10% serum in 96-well plates (10^4 cells per wellI; 0.1 ml per well). Once they reached ˜70% confluence, they were rinsed with PBS and kept for an additional 24 his in media supplemented with 1% serum, at which time drugs or vehicle (DMSO, 0.1%, prepared in 10 μl serum-free media) were directly added to each well. After 3 days, cell viability was assessed using the Cell Proliferation Reagent WST-1 (Roche, Indianapolis, Ind.). Briefly, WST-1 reagent (10 μl) was added to each well for 3 hrs at 37° C. with 5% CO2 and WST-1 products were read at 450 nm using Packard SpectraCount™.
Because the strongest toxic effect of WIN55212-2 (ST-1) was measured in T98 g cells, these cells are used as readout to study the structure activity relationship (SAR) of AI compounds at inducing cell death. Table 2 provides the chemical structure, potency and efficacy of several AI compounds.

[1] = tested on: T98 g, MDA231 and sknmc cells; assay: Killing of cell lines lacking CB1/CB2 (sensitivity profile); format: cell-based, human; conditions: for potencies and efficacies at killing these cells: T98 g, MDA231 and sknmc cells
Method: as §1
Based on this evidence, it was determined if WIN55212-2 differentially kills T98 g, MDA231 and […] cells, thus providing an index of AI receptor functionality in these cells. Also tested is Δ^9-THC (classic cannabinoid) and CP55940 (non-classical cannabinoid).

AI receptors = assay: GTPγS binding in HEK293 cell homogenates; format: biochemical, human
Text: When comparing the overall amino acid sequence of GPR124 to that of CB1 and CB2 receptors no significant homology was found. However, when focusing the comparison to the amino acid sequence encoding for the third transmembrane domains of GPR124 and CB2 receptors, 84% homology was found (FIG. 5a). […] Therefore, it is likely that ST-1, ST-11, and other AI compounds interact directly with the third transmembrane domain of GPR124. To determine the signaling mechanism of AI receptors, effect of ST-11 in HEX293 cells, which express GPR124 endogenously and commonly used to study GPCR pharmacology and signaling pathway, was tested.

CB2 = CB2 (Homo sapiens, UniProt P34972); assay: HA-tagged receptor internalization, CB2; format: cell-based; set-up: HA; expressed in transfected cells; conditions: FIG. 2b
Text: (§2) FIGS. 2d and 2e illustrate the co-docking of CP55940 and either WIN55212-2 (d) or ST-11 (e) in hCB1 receptors.

human CB1 receptors = target: T1, human CB1 receptors (Homo sapiens, UniProt P21554); assay: HA-tagged receptor internalization, CB1; format: cell-based; conditions: FIG. 2a
T1 construct: HA; expressed in transfected cells
Text: as §2

[2] = tested on: protein expressed by NG108-15 cells; conditions: cited from earlier work
[3] = tested on: homogenates from CB1-/- mice cerebellum; conditions: insensitive to SR144528; cited from earlier work
[4] = tested on: hippocampal slices from CB1-/- mice; conditions: blocked by capsazepine; cited from earlier work
[5] = T98 g cells, cell death, viability after 3 days
[6] = Homo sapiens, T98G, 72 h, T98 g cells, cell death, viability after 3 days, read-out: EC50

T1 sequence (P21554 whole entry): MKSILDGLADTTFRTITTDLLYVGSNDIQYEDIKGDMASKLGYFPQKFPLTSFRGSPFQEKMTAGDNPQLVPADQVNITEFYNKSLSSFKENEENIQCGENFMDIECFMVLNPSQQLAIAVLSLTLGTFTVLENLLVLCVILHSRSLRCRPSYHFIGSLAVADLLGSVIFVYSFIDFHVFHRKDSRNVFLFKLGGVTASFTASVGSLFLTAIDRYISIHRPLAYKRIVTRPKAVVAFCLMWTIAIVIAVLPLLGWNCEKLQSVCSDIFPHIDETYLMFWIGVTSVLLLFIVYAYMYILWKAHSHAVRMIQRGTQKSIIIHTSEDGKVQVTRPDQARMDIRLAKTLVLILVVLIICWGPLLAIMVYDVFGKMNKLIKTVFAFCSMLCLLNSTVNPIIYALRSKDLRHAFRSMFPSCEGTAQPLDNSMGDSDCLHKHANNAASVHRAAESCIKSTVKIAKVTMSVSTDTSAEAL
Chain of CB2 (P34972 whole entry): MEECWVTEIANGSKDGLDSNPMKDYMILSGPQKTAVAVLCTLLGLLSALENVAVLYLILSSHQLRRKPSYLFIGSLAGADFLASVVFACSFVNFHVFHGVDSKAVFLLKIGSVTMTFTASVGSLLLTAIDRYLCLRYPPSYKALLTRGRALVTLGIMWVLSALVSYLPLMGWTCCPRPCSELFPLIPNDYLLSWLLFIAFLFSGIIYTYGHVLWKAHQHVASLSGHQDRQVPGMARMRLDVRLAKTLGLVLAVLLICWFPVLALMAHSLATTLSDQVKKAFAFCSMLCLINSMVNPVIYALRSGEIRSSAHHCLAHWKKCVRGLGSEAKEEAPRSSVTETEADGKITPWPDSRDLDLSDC

COc1ccc2c3cc(C(=O)N4CCCCC4)ccc3n(CC3CCCCC3)c2c1 [ST-36]
EC50 (T98 g cells; Homo sapiens, T98G, 72 h): 3.7 µM

CCCCCn1cc(C(=O)c2cccc3ccccc23)cc1-c1cc(C)cc(O)c1 [ST-16]
EC50 (μM) (T98 g cells; [5]): inactive

Cn1cc(C(=O)N2CCCc3ccccc32)c2ccccc21 [ST-40]
EC50 (μM) (T98 g cells; [5]): inactive

COCCn1c(C)c(C(=O)N2CCC3(CC2)NC(=O)N(C)C3=O)c2ccccc21 [ST-8]
EC50 (T98 g cells; Homo sapiens, T98G, 72 h): 29 µM

CCCCCn1c2ccccc2c2cc(C(=O)N3CCCCC3)ccc21 [ST-32]
EC50 (T98 g cells; Homo sapiens, T98G, 72 h): 6.2 µM

CCCn1c2ccccc2c2cc(C(=O)c3ccc(C)c4ccccc34)ccc21 [ST-58, (9-propyl-carbazol-3-yl)(4-methyl-naphthyl)methanone]
EC50 (μM) (T98 g cells; [5]): inactive

CCn1c2c(c3ccccc31)CN(S(=O)(=O)c1ccc(Cl)c3nonc13)CC2 [ST-59]
EC50 (μM) (T98 g cells; [5]): inactive

CCCCCc1cc(O)c2c(c1)OC(C)(C)[C@@H]1CCC(C)=C[C@@H]21 [THC, Δ^9-THC]
potencies and efficacies at killing these cells [1]: inconsistent potencies and efficacies

Cc1c(C(=O)C(F)(F)F)c2ccccc2n1CC(=O)NCc1ccccc1 [ST-6]
EC50 (μM) (T98 g cells; [5]): inactive

Cc1c(CNN2CCOCC2)nn(C)c1C [ST-49]
EC50 (μM) (T98 g cells; [5]): inactive

COc1ccc(C(=O)c2c(C)n(CCN3CCOCC3)c3cc(C)ccc23)cc1 [ST-19]
EC50 (T98 g cells; Homo sapiens, T98G, 72 h): 7.4 µM

CCn1c(C)c(C(=O)c2cccc3ccccc23)c2ccccc21 [ST-13]
EC50 (T98 g cells; Homo sapiens, T98G, 72 h): 7.9 µM

Cc1nccn1CC1CCc2c(c3ccccc3n2C)C1=O (stereo not shown) [ST-3]
EC50 (μM) (T98 g cells; [5]): inactive

Cc1ccc(C(=O)c2c(C)n(CC(F)(F)F)c3ccccc23)c2ccccc12 [ST-29]
EC50 (T98 g cells; Homo sapiens, T98G, 72 h): 1 µM | GTPγS binding (AI receptors): increase GTP[…]S binding | cross-activation of human CB2 receptors (receptor internalization) (CB2): engage CB2 receptors

CC(=O)c1c(C)n(CCOc2cccc3ccccc23)c2ccccc12 [ST-45]
EC50 (T98 g cells; Homo sapiens, T98G, 72 h): 30 µM

COc1ccc2c(c1)c(C(=O)N1CCCC(c3nnc4ccccn34)C1)c(C)n2C (stereo not shown) [ST-41]
EC50 (μM) (T98 g cells; [5]): inactive

CCOC(=O)N1CCc2c(c3cc(C(=O)c4ccc(C)c5ccccc45)ccc3n2CC)C1
EC50 (T98 g cells; Homo sapiens, T98G, 72 h): 6 µM

5-ethyl-7-methoxy-2-[(4-methylnaphthalen-1-yl)carbonyl]-1H,2H,3H,4H,5H-pyrido[4,3-b]indole [ST-33]
EC50 (T98 g cells; T98 g cells, cell death, viability after 3 days, read-out: EC50): 1.4 µM

Cc1ccc(C(=O)c2c(C)n(C3CC3)c3ccccc23)c2ccccc12 [ST-30]
EC50 (T98 g cells; Homo sapiens, T98G, 72 h): 1 µM

O=C(c1cccc2ccccc12)c1cn(CCN2CCOCC2)c2ccccc12 [ST-20]
EC50 (T98 g cells; Homo sapiens, T98G, 72 h): 23 µM

COc1ccc2c(c1)c(C(=O)c1ccc(C)c3ccccc13)c(C)n2CCN1CCOCC1 [ST-21]
EC50 (T98 g cells; Homo sapiens, T98G, 72 h): 29 µM

COc1ccc(C(=O)c2c(C)n(CCN3CCOCC3)c3ccccc23)cc1 [ST-17]
EC50 (T98 g cells; Homo sapiens, T98G, 72 h): 24 µM

CCn1c2ccccc2c2cc(C(=O)N3CCCc4ccccc43)ccc21 [ST-53, (9-ethyl-carbazol-3-yl)(1,2,3,4-tetrahydraquinoline)methanone]
EC50 (T98 g cells; [6]): 0.516 µM

Cc1c(C(=O)c2cccc3ccccc23)c2ccccc2n1C [ST-12]
EC50 (T98 g cells; Homo sapiens, T98G, 72 h): 3.1 µM

Cc1ccc(C(=O)c2c(C)n(CCN3CCOCC3)c3ccc(Cl)cc23)c2ccccc12 [ST-22]
EC50 (T98 g cells; Homo sapiens, T98G, 72 h): 5.4 µM

COc1ccc2c(C(=O)c3ccc(C)c4ccccc34)c(C)n(CCN3CCOCC3)c2c1 [ST-26]
EC50 (T98 g cells; Homo sapiens, T98G, 72 h): 2.5 µM

CC1=C(CCN2C(=O)COc3ccccc32)c2ccccc2C1C (stereo not shown) [ST-4]
EC50 (μM) (T98 g cells; [5]): inactive

CC(=O)c1c(C)n(CCOc2ccccc2)c2ccccc12 [ST-2]
EC50 (T98 g cells; Homo sapiens, T98G, 72 h): 21 µM

Cc1ccc(C(=O)c2c(C)n(CCN3CCOCC3)c3ccccc23)c2ccccc12 [ST-48]
EC50 (T98 g cells; Homo sapiens, T98G, 72 h): 6.7 µM | cross-activation of human CB1 receptors (receptor internalization) (human CB1 receptors): engage CB1 receptors | cross-activation of human CB2 receptors (receptor internalization) (CB2): engage CB2 receptors

CCCCCn1c2c(c3ccc(OC)cc31)CN(C(=O)c1ccccc1)CC2 [ST-35]
EC50 (T98 g cells; [6]): ~30 µM

CCN1C(=O)/C(=N\NC(=O)c2cccc3ccccc23)c2ccccc21 [ST-37]
EC50 (T98 g cells; Homo sapiens, T98G, 72 h): 5.6 µM

Cc1ccc(C(=O)c2c(C)n(CCN3CCOCC3)c3cc(Cl)cc(Cl)c23)c2ccccc12 [ST-27]
EC50 (T98 g cells; Homo sapiens, T98G, 72 h): 0.409 µM

COc1ccc2c(c1)c(C(O)N1CCCC(c3nnc4ccccn34)C1)c(C)n2C (stereo not shown) [ST-42]
EC50 (μM) (T98 g cells; [5]): inactive

Cc1c(C(=O)c2cccc3ccccc23)c2cccc3c2n1[C@@H](CN1CCOCC1)CO3 [ST-1, WIN55212-2]
EC50 (T98 g cells; Homo sapiens, T98G, 72 h): 2.1 µM | EC50 ([1]; Homo sapiens, range over the three cell lines (FIG. 1), read-out: potency at killing T98 g, MDA231 and sknmc cells): 1.5 to 2.9 µM | toxic efficacy ([1]; rank order of cell lines): T98 g>MDA>sknmc | binding affinity [2]: nanomolar affinity | [35S]-GTPγS binding [3]: increase [^35S]-GTPγS binding | excitatory transmission [4]: inhibit excitatory transmission

Cc1c(C(=O)Cn2cnc3ccccc3c2=O)c2ccccc2n1C [ST-5]
EC50 (μM) (T98 g cells; [5]): inactive

Cc1ccc(C(=O)c2c(C)n(C)c3ccccc23)c2ccccc12 [ST-10]
EC50 (T98 g cells; Homo sapiens, T98G, 72 h): 2.9 µM

CCCn1c(C)c(C(=O)c2cccc3ccccc23)c2ccccc21 [ST-15]
EC50 (T98 g cells; Homo sapiens, T98G, 72 h): 1.5 µM

COCCn1cc(C(=O)N2CCCC(CN(C)C)C2)c2ccccc21 (stereo not shown) [ST-9]
EC50 (μM) (T98 g cells; [5]): inactive

Cc1ccc(C(=O)c2c(C)n(CCN3CCOCC3)c3cc(Cl)ccc23)c2ccccc12 [ST-24]
EC50 (T98 g cells; Homo sapiens, T98G, 72 h): 1.4 µM

Cc1ccc(C(=O)c2c(C)n(CCN3CCOCC3)c3ncccc23)c2ccccc12 [ST-23]
EC50 (T98 g cells; Homo sapiens, T98G, 72 h): 3.5 µM | cross-activation of human CB1 receptors (receptor internalization) (human CB1 receptors): engage CB1 receptors | GTPγS binding (AI receptors): increase GTP[…]S binding

O=C(c1ccccc1)c1cn(CC(=O)N2CCOCC2)c2ccccc12 [ST-46]
EC50 (μM) (T98 g cells; [5]): inactive

CC(=O)c1c(C)n(CCCOc2ccccc2)c2ccccc12 [ST-44]
EC50 (T98 g cells; Homo sapiens, T98G, 72 h): > 20 µM

O=C1CCCc2c1c1ccccc1n2Cc1ccccc1 [ST-7]
EC50 (μM) (T98 g cells; [5]): inactive

Cc1ccc(C(=O)c2c(C)n(CCN3CCOCC3)c3cnccc23)c2ccccc12 [ST-31]
EC50 (T98 g cells; Homo sapiens, T98G, 72 h): 20 µM

CCCCCCC(C)(C)c1ccc([C@@H]2C[C@H](O)CC[C@H]2CCCO)c(O)c1 [CP55940, CP55,940]
potencies and efficacies at killing these cells [1]: inconsistent potencies and efficacies | competition for WIN-2 binding [2]: did not compete

Cc1ccc(C(=O)n2c3ccccc3c3ccccc32)c2ccccc12 [ST-64]
EC50 (T98 g cells; [6]): 1.87 µM

CCCn1cc(C(=O)c2ccc(C)c3ccccc23)c2ccccc21 [ST-14]
EC50 (μM) (T98 g cells; [5]): inactive

CCn1c2ccccc2c2cc(C(=O)c3ccc(C)cc3)ccc21 [ST-63, (9-ethyl-carbazol-3-yl)(p-methylphenyl)methanone]
EC50 (T98 g cells; [6]): 0.715 µM

Cc1ccc(C(=O)c2c(C(F)(F)F)n(CCN3CCOCC3)c3ccccc23)c2ccccc12 [ST-28]
EC50 (T98 g cells; Homo sapiens, T98G, 72 h): 2.7 µM

CCn1c(C)c(C(=O)c2ccc(OC)cc2)c2ccccc21 [ST-47]
EC50 (T98 g cells; Homo sapiens, T98G, 72 h): ~20 µM

CCn1c2ccccc2c2cc(C(=O)N3CCN(C)CC3)ccc21 [ST-62, (9-ethyl-carbazol-3-yl)(N-methylpiperazine)methanone]
EC50 (μM) (T98 g cells; [5]): inactive

Cc1ccc(C(=O)c2c3n(c4ccccc24)CCCC3)c2ccccc12 [ST-25]
EC50 (T98 g cells; Homo sapiens, T98G, 72 h): 0.634 µM | GTPγS binding (AI receptors): increase GTP[…]S binding

CCn1c2ccccc2c2cc(C(=O)c3ccc(C)c4ccccc34)ccc21 [ST-34, (9-ethyl-9H-carbazol-3-yl)(4-methylnaphthalen-1-yl)methanone]
EC50 (T98 g cells; Homo sapiens, T98G, 72 h): 0.077 µM

CCCn1c(C)c(C(=O)c2ccc(C)c3ccccc23)c2ccccc21 [ST-18]
EC50 (T98 g cells; Homo sapiens, T98G, 72 h): 1.9 µM
